From US6911477B2, “Muscarinic receptor agonists” (Pfizer Inc., priority 1996, dated 2005) come the findings set out here.

Assay [1] has as its target T1, human m2 receptor (Homo sapiens, UniProt P08172).
T1 sequence (P08172 1-466): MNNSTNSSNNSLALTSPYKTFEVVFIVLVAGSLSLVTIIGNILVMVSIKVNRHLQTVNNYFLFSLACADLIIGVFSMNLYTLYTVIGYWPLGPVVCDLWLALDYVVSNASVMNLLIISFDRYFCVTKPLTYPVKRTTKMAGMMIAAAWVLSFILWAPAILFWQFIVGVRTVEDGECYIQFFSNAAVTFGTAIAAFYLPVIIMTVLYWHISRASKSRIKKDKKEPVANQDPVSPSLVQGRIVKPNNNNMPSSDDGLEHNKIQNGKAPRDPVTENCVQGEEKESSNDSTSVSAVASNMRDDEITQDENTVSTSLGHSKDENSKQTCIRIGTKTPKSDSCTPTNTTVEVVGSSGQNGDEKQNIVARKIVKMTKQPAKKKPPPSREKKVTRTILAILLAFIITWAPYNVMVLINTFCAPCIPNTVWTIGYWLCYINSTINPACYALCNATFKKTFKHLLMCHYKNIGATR
Briefly: inhibition of forskolin-stimulated cAMP accumulation, m2 receptor. The class given is cell-based. The settings on record: standard agonist, typical value, 5 μM forskolin. The text has this:
(§1) Activity of the compounds of formula I for muscarinic receptors can be determined according to the following protocol. Chinese hamster ovary cells (CHO-K1) stably transformed to express human m1-m5 receptors can be obtained from Dr. Tom Bonner (Laboratory of Cell Biology, National Institute of Mental Health, Building 36, Rm 3A-17, National Institute of Health, Bethesda, Md. 20892). Cells are maintained in Dulbecco's Modified Eagle Medium containing 10% fetal calf serum and harvested at confluence by brief incubation in Ca^++/Mg^++-free phosphate-buffered saline containing 4 mM EDTA.
(§2) Functional responses at m2 and m4 receptors can be determined by measuring inhibition of forskolin-stimulated cAMP accumulation. Harvested cells are preincubated (15 minutes at 20-22° C.) with 3-isobutyl-1-methyl-xanthine (IBMX; 0.2 mM) and then incubated (10 minutes at 20-22° C.) in a HEPES-buffered Krebs solution with test compounds in the presence of 5 μM forskolin. The reaction is stopped by the addition of 10 N acetic acid and the cAMP content of dried supernatants is determined using a scintillation proximity assay (Amersham).
Background: cAMP levels reflect the balance of adenylyl cyclase and phosphodiesterase activity.

Assay [2] addresses T2, human m4 receptor (Homo sapiens, UniProt P08173).
T2 construct: host or cells: CHO-K1
T2 sequence (P08173 1-479): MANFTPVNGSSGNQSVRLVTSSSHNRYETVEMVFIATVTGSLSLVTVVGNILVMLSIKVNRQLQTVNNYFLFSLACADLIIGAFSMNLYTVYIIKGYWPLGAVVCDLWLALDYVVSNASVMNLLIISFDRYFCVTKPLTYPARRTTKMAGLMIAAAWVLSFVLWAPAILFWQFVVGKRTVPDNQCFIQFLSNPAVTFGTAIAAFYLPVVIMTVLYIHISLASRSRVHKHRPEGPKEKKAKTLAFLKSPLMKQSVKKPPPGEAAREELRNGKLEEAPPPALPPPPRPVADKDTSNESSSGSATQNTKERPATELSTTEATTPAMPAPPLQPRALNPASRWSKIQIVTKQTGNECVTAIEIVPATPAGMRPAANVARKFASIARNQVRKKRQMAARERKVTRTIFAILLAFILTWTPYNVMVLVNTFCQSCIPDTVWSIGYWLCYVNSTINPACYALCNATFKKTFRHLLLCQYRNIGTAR
Briefly: inhibition of forskolin-stimulated cAMP accumulation, m4 receptor. The class given is cell-based. Conditions: standard agonist, typical value, 5 μM forskolin.
From the text: as §1, §2

As for `C[N+](C)(C)CCOC(N)=O` [Carbachol], the “inhibition of the forskolin-stimulated cAMP levels” value in assay [1] and in assay [2] was 60-80% each time.
